Measurements published in ChEMBL document CHEMBL5370534, “Discovery of novel triazine derivatives as potent retinoic acid receptor-related orphan receptor γt (RORγt) inverse agonists” (Eur J Med Chem, 2023).

What was measured:
[1] = target: T1, Nuclear receptor ROR-gamma (Homo sapiens, UniProt P51449)
T1 sequence (P51449 whole entry): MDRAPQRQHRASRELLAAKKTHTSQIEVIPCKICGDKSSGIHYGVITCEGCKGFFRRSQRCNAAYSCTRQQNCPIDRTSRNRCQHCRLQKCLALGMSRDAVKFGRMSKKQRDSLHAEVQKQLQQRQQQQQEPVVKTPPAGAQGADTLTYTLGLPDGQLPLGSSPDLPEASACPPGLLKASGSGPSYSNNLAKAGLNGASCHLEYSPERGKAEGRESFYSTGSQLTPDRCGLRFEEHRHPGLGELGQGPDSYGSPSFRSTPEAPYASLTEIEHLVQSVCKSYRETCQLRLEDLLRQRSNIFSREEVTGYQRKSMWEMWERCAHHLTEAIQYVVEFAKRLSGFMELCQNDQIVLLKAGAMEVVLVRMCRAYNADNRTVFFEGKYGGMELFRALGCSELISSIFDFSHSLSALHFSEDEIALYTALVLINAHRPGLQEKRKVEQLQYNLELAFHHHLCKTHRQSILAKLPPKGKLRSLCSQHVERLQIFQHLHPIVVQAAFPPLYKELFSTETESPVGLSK

[2] = Half life in mouse liver microsomes at 1 mM in presence of NADPH by HPLC-MS/MS analysis; parameters: dose or concentration left out as unconfirmed
Mus musculus = experiment: Antiinflammatory activity against imiquimod-induced psoriasis BALB/c mouse model assessed as reduction in psoriasis symptoms at 0.4 mg/kg, po qd for 7 days; conditions: 168 h, read-out: INH
[3] = target: T1, Nuclear receptor ROR-gamma; remark: listed apart in the source

SMILES | IC50 [1] [nM] | other results
CC(=O)Nc1ccc(Nc2nc(Oc3c(Cl)cccc3C(F)(F)F)nc(-c3ccc(C(F)(F)F)cc3)n2)cc1 | 32 | half-life [2]: 17.8 min
O=C(O)c1ccc(Nc2nc(Oc3c(Cl)cccc3Cl)nc(C3CCCCC3)n2)cc1 | 596 | 
CC(C)(C)c1ccc(-c2nc(Nc3ccc(C(=O)O)cc3)nc(Oc3c(Cl)cccc3Cl)n2)cc1 | 99.5 | 
COc1ccc(-c2nc(Nc3ccc(C(=O)O)c(O)c3)nc(Oc3c(Cl)cccc3Cl)n2)cc1 | 83 | 
CNC(=O)c1ccc(Nc2nc(Oc3c(Cl)cccc3Cl)nc(-c3ccc(OC)cc3)n2)cc1 | 12.9 | 
COc1ccc(-c2nc(Nc3ccc(C(N)=O)cc3)nc(Oc3c(Cl)cccc3Cl)n2)cc1 | 13.3 | 
CN(Cc1cnc2nc(N)nc(N)c2n1)c1ccc(C(=O)N[C@@H](CCC(=O)O)C(=O)O)cc1 [METHOTREXATE] |  | inhibition in vivo at 0.4 mg/kg (Mus musculus): 53.1%
CNC(=O)c1ccc(Nc2nc(Oc3c(Cl)cccc3C(F)(F)F)nc(-c3ccc(OC)cc3)n2)cc1 | 16.7 | 
CNC(=O)c1ccc(Nc2nc(Oc3c(Cl)cccc3Cl)nc(-c3ccc(C(F)(F)F)cc3)n2)cc1 | 22.5 | 
Cc1ccc(-c2nc(Nc3ccc(C(=O)O)cc3)nc(Oc3c(Cl)cccc3Cl)n2)cc1 | 61.7 | 
Cc1cccc(-c2nc(Nc3ccc(C(=O)O)cc3)nc(Oc3c(Cl)cccc3Cl)n2)c1 | 241 | 

The remaining compounds from weak to strong by IC50 [1], led by results:

IC50 [1] [nM] | SMILES | other results
3420 | O=C(O)c1ccc(Nc2nc(Oc3c(Cl)cccc3Cl)nc(C3CCCC3)n2)cc1 | 
822 | COc1ccc(-c2nc(NC3CCC(C(=O)O)C3)nc(Oc3c(Cl)cccc3Cl)n2)cc1 (stereo unspecified) | 
152 | O=C(O)c1ccc(Nc2nc(Oc3c(Cl)cccc3Cl)nc(-c3ccc(F)cc3)n2)cc1 | 
99.5 | COc1ccc(-c2nc(Nc3ccc(C(C)C(=O)O)cc3)nc(Oc3c(Cl)cccc3Cl)n2)cc1 (stereo unspecified) | 
91 | COc1ccc(-c2nc(Nc3cccc(C(=O)O)c3)nc(Oc3c(Cl)cccc3Cl)n2)cc1 | 
68.6 | O=C(O)c1ccc(Nc2nc(Oc3c(Cl)cccc3Cl)nc(-c3ccc(C(F)(F)F)cc3)n2)cc1 | half-life [2]: > 145 min; IC50 [3]: 1620 nM
32.5 | CNS(=O)(=O)c1ccc(Nc2nc(Oc3c(Cl)cccc3Cl)nc(-c3ccc(OC)cc3)n2)cc1 | 
